In data set [1] the target is T1, 5HT6-human recombinant receptor (Homo sapiens, UniProt P50406).
T1 construct: purchased Receptor Biology; host or cells: HEK-293 cell membranes
Description: Binding to Serotonin Receptor 5HT6 ([3H]-LSD radioligand displacement, HEK-293 cell membranes). The conditions noted are these: [3H]-LSD 2.7 nM, HEK-293 membranes; for inhibition at 0.1 µM: compound at 10^−7 M, 60 min, 37° C. On the procedure:
Binding to Serotonin Receptor 5HT6
Cell membranes of HEK-293 cells expressing the 5HT6-human recombinant receptor were supplied by Receptor Biology. In said membranes the receptor concentration is 2.18 pmol/mg protein and the protein concentration is 9.17 mg/ml. The experimental protocol follows the method of B. L. Roth et al. [B. L. Roth et al., The Journal of Pharmacology and Experimental Therapeutics, 1994, 268, 1403] with the following slight changes. The respective part of the literature description is hereby incorporated by reference and forms part of the disclosure.
The commercial membrane is diluted (1:40 dilution) with the binding buffer: 50 mM Tris-HCl, 10 mM MgCl2, 0.5 mM EDTA (pH 7.4). The radioligand used is [^3H]-LSD at a concentration of 2.7 nM with a final volume of 200 μl. incubation is initiated by adding 100 μl of membrane suspension, (≈22.9 μg membrane protein), and is prolonged for 60 minutes at a temperature of 37° C. The incubation is ended by fast filtration in a Brandel Cell Harvester through fiber glass filters made by Schleicher & Schuell GF 3362 pretreated with a solution of polyethylenimine at 0.5%. The filters are washed three times with three milliliters of buffer Tris-HCl 50 mM pH 7.4. The filters are transferred to flasks and 5 ml of Ecoscint H liquid scintillation cocktail are added to each flask. The flasks are allowed to reach equilibrium for several hours before counting with a Wallac Winspectral 1414 scintillation counter. Non-specific binding is determined in the presence of 100 μM of serotonin. Tests were made in triplicate. The inhibition constants (Ki, nM) were calculated by non-linear regression analysis using the program EBDA/LIGAND described in Munson and Rodbard, Analytical Biochemistry, 1980, 107, 220, which is hereby incorporated by reference and forms part of the disclosure.
(In general: Loss of bound radioactivity is the signal in a displacement assay; it reports binding, not function.)

This is an account of results in patent US8263609B2, “Tetrahydro-β-carbolin-sulfonamide derivatives as 5-Ht6 ligands” (Laboratorios Del Dr. Esteve, S.A., priority 2005, dated 2012).

The structures appear in SMILES notation.

T1 sequence (P50406 whole entry): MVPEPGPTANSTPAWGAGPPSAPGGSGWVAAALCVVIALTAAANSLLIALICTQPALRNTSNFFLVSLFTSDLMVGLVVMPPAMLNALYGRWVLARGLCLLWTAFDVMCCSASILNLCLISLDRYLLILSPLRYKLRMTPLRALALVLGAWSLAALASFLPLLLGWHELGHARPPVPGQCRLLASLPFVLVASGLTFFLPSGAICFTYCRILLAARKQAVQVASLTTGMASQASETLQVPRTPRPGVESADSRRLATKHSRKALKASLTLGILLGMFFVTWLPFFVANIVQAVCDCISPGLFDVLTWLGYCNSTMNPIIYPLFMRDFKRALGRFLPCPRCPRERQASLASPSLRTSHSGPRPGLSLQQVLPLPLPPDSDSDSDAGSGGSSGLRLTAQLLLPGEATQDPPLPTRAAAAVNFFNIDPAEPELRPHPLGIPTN

The term melting point denotes the temperature of the solid-liquid transition. By inhibition is commonly meant how much of the control response was suppressed. Consider `CN1CCc2c([nH]c3c(NS(=O)(=O)c4ccc5ccccc5c4)cccc23)C1` [Example 38, Naphthalene-2-sulfonic acid (2-methyl-2,3,4,9-tetrahydro-1H-β-carbolin-8-yl)-amide], for which the melting point fell in the range of 240 to 242 °C. Further, the inhibition at 0.1 µM in data set [1] turned out to be 73.5%.
What is called Ki is the dissociation constant of the complex between target and ligand, obtained from inhibition or displacement. As for `CN1CCc2c([nH]c3c(NS(=O)(=O)c4csc5ccccc45)cccc23)C1` [Example 45, Benzo[b]thiophene-3-sulfonic acid (2-methyl-2,3,4,9-tetrahydro-1H-β-carbolin-8-yl)-amide], the melting point fell in the range of 225 to 226 °C. In addition, the inhibition constant Ki in data set [1] (non-linear regression EBDA/LIGAND) is 29.7 nM. Further, in data set [1], the inhibition at 0.1 µM came to 87.1%.
